System: PGP/syndapin-2
Assay: Proximity ligation assay PGP/syndapin-2 in BECs
Assay type: cell-based, mouse
Conditions: polarised BECs, FAM-Aβ (1-40) 500 nM, 15 minutes; n = 60 images

## 5-Fluorescein-amyloid-β protein (Aβ 1-40) [FAM-Aβ (1-40)]
  change in interaction of syndapin-2 with PGP (PLA dots): no significant difference

Source: article doi:10.1101/2020.07.12.199869v2 (bioRxiv, 2020)
